Here are results for 10 compounds from patent publication US20250059196A1 (SHANGHAI HANSOH BIOMEDICAL CO., LTD., priority 2021, published 2025).

The target of data set [1] is MALT1 protease activity in TMD8 cells (substrate BCL-10) (Homo sapiens (Human), UniProt Q9UDY8). Kind of data set: Intracellular MALT1 protease activity detection (BCL-10 ELISA in TMD8 cells). It counts as cell-based. To be noted: undigested BCL-10 by ELISA, 30 min compound then 2 h stimulation cocktail, read-out: Bcl10 TMD8 IC50. How it is done: By detecting the digestion level of the substrate BCL-10 by MALT1 in TMD8 cells, the inhibitory effect of the compound on MALT1 protease activity in the cellular environment was tested.
MALT1 protease activity in TMD8 cells (substrate BCL-10), sequence (Q9UDY8 whole entry): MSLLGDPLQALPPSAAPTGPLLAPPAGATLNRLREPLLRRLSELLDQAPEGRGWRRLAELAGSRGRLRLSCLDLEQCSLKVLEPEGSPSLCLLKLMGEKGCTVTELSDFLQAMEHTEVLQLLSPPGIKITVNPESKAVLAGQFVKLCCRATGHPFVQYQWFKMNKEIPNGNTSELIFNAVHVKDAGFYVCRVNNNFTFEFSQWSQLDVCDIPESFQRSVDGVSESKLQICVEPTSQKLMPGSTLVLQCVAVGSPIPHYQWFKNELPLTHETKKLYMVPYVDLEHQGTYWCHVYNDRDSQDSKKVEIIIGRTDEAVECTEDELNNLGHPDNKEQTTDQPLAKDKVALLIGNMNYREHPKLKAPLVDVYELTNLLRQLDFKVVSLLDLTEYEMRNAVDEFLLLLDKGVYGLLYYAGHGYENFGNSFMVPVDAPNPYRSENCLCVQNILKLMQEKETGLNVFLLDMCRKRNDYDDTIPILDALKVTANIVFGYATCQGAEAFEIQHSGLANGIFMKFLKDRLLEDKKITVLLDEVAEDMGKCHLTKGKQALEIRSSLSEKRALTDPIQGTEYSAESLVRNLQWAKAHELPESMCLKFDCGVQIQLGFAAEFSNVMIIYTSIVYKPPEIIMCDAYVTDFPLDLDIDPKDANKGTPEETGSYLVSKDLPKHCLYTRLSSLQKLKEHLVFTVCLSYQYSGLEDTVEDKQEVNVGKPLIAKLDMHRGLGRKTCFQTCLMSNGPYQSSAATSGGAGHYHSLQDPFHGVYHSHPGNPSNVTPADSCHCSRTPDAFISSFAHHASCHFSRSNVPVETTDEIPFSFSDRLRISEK
The ELISA sandwich method was used to detect the content of undigested BCL-10 protein in cells and determine the inhibitory effect of compounds on intracellular MALT1 protease activity. The highest concentration of the compound detected was 10000 nM, 3-fold dilution, a total of 9 concentrations (10000 nM-1.5 nM). Cells were plated at an appropriate density. Compounds of corresponding concentrations were first added for action for 30 min, and then eBioscience cell stimulation cocktail was added to stimulate the cells for 2 h. Cell lysate was then collected. The cell lysate was added to the assay plate previously coated with recombinant BCL-10 antibody (Abcam, #Ab33905) and incubated at 4° C. overnight. The next day, BCL-10 detection antibody (Santacruz, #Sc-5273HRP) was added and incubated for 2 h, TMB substrate was used for color development for about 30 min, then the color development was terminated, and a microplate reader was used for detection.
2) Curve fitting: Log(inhibitor) vs. response—Variable slope (four parameters) in GraphPad Prism 6 was used to perform fitting equation analysis on compound concentration and corresponding inhibition rate, the curve was fit and compound IC50 value was obtained.
(§1) The fitting calculation equation is Y=Bottom+(Top−Bottom)/(1+10^((Log IC50−X)*HillSlope))

A short description of data set [2]: Pharmacokinetics of oral administration in Balb/C mice. The format is in vivo. The settings on record: 30 mg/kg, P.O., plasma. On the set-up: Cmax: unit: ng/mL. On the procedure: Balb/C mice were used as test animals to study the pharmacokinetic behavior of the compound in the plasma of mice after oral administration at a dose of 30 mg/kg.
3 Balb/C mice (3/example), male, from Shanghai Jiesijie Experimental Animal Co., Ltd., animal production license number (SCXK (Shanghai) 2013-0006 N0.311620400001794).
3 Balb/C mice, male; p.o. respectively at a dose of 30 mg/kg and an administration volume of 10 mL/kg after the mice were fasted overnight.
Before and after administration of mice, 0.1 mL of blood was collected from the orbit at 0, 0.5, 1, 2, 4, 6, 8 and 24 h, and placed in EDTA-K2 test tubes, which was centrifuged at 6000 rpm at 4° C. for 6 min to separate plasma which was stored at −80° C.
• 1) 160 μL of acetonitrile was added to 40 μL of plasma sample for precipitation, and same was mixed and centrifuged at 3500×g for 5 to 20 min. • 2) 100 μL of the treated supernatant solution was taken and subjected to LC/MS/MS to analyze the concentrations of the test compounds.
• Liquid phase conditions: Shimadzu LC-20AD pump • Mass spectrometry conditions: AB Sciex API 4000 mass spectrometer • Chromatographic column: Phenomenex Gemiu 5 um C18 50×4.6 mm • Mobile phase: liquid A is 0.1% aqueous formic acid solution, liquid B is acetonitrile • flow rate: 0.8 mL/min • Elution time: 0-4.0 min, the eluent is as follows:
The main pharmacokinetic parameters were calculated using WinNonlin 8.2.

The target of data set [3] is Recombinant human MALT1/MLT protein (Homo sapiens (Human), UniProt Q9UDY8). Kind of data set: Inhibitory effect on MALT1 enzyme activity (Ac-LRSR-AMC substrate, fluorescence 460 nm). The format is biochemical. To be noted: 10 nM FL MALT1, Ac-LRSR-AMC substrate, 50 min pre-incubation, 4 h reaction. How it is done: Ac-LRSR-AMC was used as the substrate to test the IC50 of the inhibitory activity of compounds on MALT1 enzyme activity at their Km concentration.
Recombinant human MALT1/MLT protein, sequence (Q9UDY8 whole entry): as above
Ac-LRSR-AMC was used as the substrate which was digested by MALT1 to produce products, which produced fluorescence that could be detected at 460 nm. The highest concentration of the compound detected was 1000 nM, 3-fold dilution, a total of 11 concentrations (1000 nM-0.017 nM). The reaction system is 10 nM FL MALT1 protein, […] Ac-LRSR-AMC, 50 mM Tris pH 7.5, 0.6M Citrate, 1 mM DTT, 1 mM EDTA, 0.05% BSA and 1.5% DMSO. The compound and the enzyme were pre-incubated at room temperature for 50 min. The substrate was then added and the reaction was carried out for 4 h.
The original data (460 nm reading) was calculated according to the following formula to obtain the inhibition rate.
(§2) Log(inhibitor) vs. response—Variable slope (four parameters) in GraphPad Prism 6 was used to perform fitting equation analysis on compound concentration and corresponding inhibition rate, the curve was fit and compound IC50 value was obtained.
as §1

Data set [4] in a line: Caco-2 bidirectional permeability test. The settings on record: human, Caco-2.
Procedure: (§3) The purpose of this experiment is to test the bidirectional permeability of the compound through the Caco-2 cell model and evaluate whether the compound is transported by efflux transporters.
(§4) Liquid chromatography-mass spectrometer, centrifuge, vortexer, pipette, 96-well test plate (HTS Transwell Plate), acetonitrile solution containing internal standard, Caco-2 cells (ATCC), Hank's balance solution (HBSS), fluorescent yellow (LY), dimethyl sulfoxide (DMSO).
(§5) 108 μL of transport buffer (HBSS containing 10 μM of the example compound) was added to the administration end of A to B. • b. 300 μL of transport buffer (HBSS containing DMSO) was added to the receiving end of A to B. • c. 300 μL of transport buffer (HBSS containing 10 μM example compound) was added to the administration end of A to B. • d. 108 μL of transport buffer (HBSS containing DMSO) was added to the receiving end of A to B. • e. incubation was performed for 90 min. • d. a sample was taken, processed and detected with mass spectrometry.
(§6) • Instruments: Liquid Chromatography; • Chromatographic column: Waters XSelect HSS T3 2.5 μm (2.1×50 mm); • Mobile phase: Phase A: 0.1% formic acid in pure water; Phase B: 0.1% formic acid in acetonitrile.
(§7) • Instruments: AP16500+liquid chromatography-mass spectrometer; • The ion source is electrospray ionization source (ESI); • The detection method is positive ion detection;
(§8) The scanning method is selected reaction monitoring (MRM).
Another data set deals with OCI-Ly3 cells. The data set can be described thus: Inhibition of proliferation of OCI-Ly3 cells (CellTiter-Glo). The format is cell-based, human. The settings on record: 96 h incubation, read-out: Inhibition test of proliferation of OCI-Ly3 cells IC50. On the procedure:
The compound's inhibitory effect on the proliferation of TMD8 and OCI-Ly3 cells was evaluated through cell proliferation inhibition experiments.
The compound's inhibitory effect on the proliferation of TMD8 and OCI-Ly3 cells was detected by the CellTiter-Glo method. The highest concentration of the compound detected was 1000 nM, 3-fold dilution, a total of 9 concentrations (1000 nM-0.15 nM). After the cells were plated at an appropriate density, compounds were added the next day and incubated for 96 h before detection using the CellTiter-Glo Luminescent detection kit.
as §2, §1

Where [5] appears, read: male, mouse, po, read-out: AUC 0-t.
[6] abbreviates: male, mouse, po, read-out: Cmax.
[7] abbreviates: male, mouse, po, read-out: Tmax.

Read-outs that look alike come from different tables or passages of the source.

Procedure for Caco-2 cells: as §3, §4, §5, §6, §7, §8

As for `O=C(Nc1ccnc(C(F)(F)F)c1)c1cnn(-c2ccc3c4c(cccc24)C(=O)N3)c1C(F)(F)F` [Example 3], the IC50 in data set [1] is 83 nM. Besides, in data set [2], the “AUC0-∞” value was 341,390 ng/mL*hr, the exposure AUC(0-t) was 330,088 ng/mL*h, the Cmax was 23,733 ng/mL and the mean residence time (MRT) came out at 7.4 h. In addition, in data set [2], the T1/2 is 4.7 h and the time of peak concentration (Tmax) was determined as 4.0 h. Besides, in the data set with Caco-2 cells (Caco-2), the “Papp A − B” value is on record as 1.57 10^−6 cm · s^−1 and the “Papp B − A” value is 10.24 10^−6 cm · s^−1. Also, the “Papp(B − A)/Papp(A − B)” value in the data set on Caco-2 cells (human, Caco-2, 90 min, 10 μM) amounted to 6.52. The IC50 in data set [3] is 105 nM.
Take `O=C(Nc1cnc(-n2nccn2)c(Cl)c1)c1cnn(-c2ccc3c4c(cccc24)C(=O)N3)c1C(F)(F)F` [Example 5, N-(6-(2H-1,2,3-triazol-2-yl)-5-chloropyridin-3-yl)-1-(2-oxo-1,2-dihydrobenzo[cd]indol-6-yl)-5-trifluoromethyl-1H-pyrazole-4-carboxamide]: the IC50 in data set [1] was determined as 36 nM. In addition, in data set [2] (male, mouse, po), the AUC(0-inf) amounted to 64100 ng·h/mL and the half-life is 2.1 h. Besides, in data set [2] (setting [5]), the exposure AUC(0-t) came out at 64100 ng·h/mL. The peak concentration (Cmax) in data set [2] (setting [6]) stood at 7180 ng/mL. The mean residence time (MRT) in data set [2] (male, mouse, po, read-out: MRT) stood at 5.2 h. Moreover, the Tmax in data set [2] (setting [7]) turned out to be 2 h. Moreover, the IC50 in data set [3] came to 15 nM. Further, in data set [4], the apical-to-basolateral permeability (Papp A→B) at 90 min, 10 µM was found to be 1 ×10⁻⁶ cm/s; the Papp B→A at 90 min, 10 µM stood at 7.03 ×10⁻⁶ cm/s; the efflux ratio at 90 min, 10 µM came out at 7.09. In addition, the IC50 in the data set with OCI-Ly3 cells (Homo sapiens) turned out to be 120 nM.
In data set [2] (male, mouse, po), `O=C(Nc1cc(Cl)n2ncc(Cl)c2c1)c1cnn(-c2ccc3c4c(cccc24)C(=O)N3)c1C(F)(F)F` [Example 13, N-(3,7-dichloropyrazolo[1,5-a]pyridin-5-yl)-1-(2-oxo-1,2-dihydrobenzo[cd]indol-6-yl)-5-trifluoromethyl-1H-pyrazole-4-carboxamide] gave a total exposure AUC(0-inf) of 67800 ng·h/mL and a half-life of 6.2 h. The exposure AUC(0-t) in data set [2] (setting [5]) came to 62700 ng·h/mL. For the same compound, the highest concentration (Cmax) in data set [2] (setting [6]) was found to be 4380 ng/mL. Besides, the mean residence time MRT in data set [2] (male, mouse, po, read-out: MRT) was 9.4 h. Besides, the Tmax in data set [2] (setting [7]) was 4 h. Further, the IC50 in data set [3] amounted to 107 nM. In data set [4], the Papp A→B at 90 min, 10 µM turned out to be 7.63 ×10⁻⁶ cm/s; the Papp B→A at 90 min, 10 µM was found to be 19.1 ×10⁻⁶ cm/s; the efflux ratio at 90 min, 10 µM amounted to 2.5. Besides, the IC50 in the data set with OCI-Ly3 cells (Homo sapiens) was 272 nM.
Take `Cc1ncn(-c2ncc(NC(=O)c3cnn(-c4ccc5c6c(cccc46)C(=O)N5)c3C(F)(F)F)cc2Cl)n1` [Example 46]: the IC50 worked out at 80 nM in data set [1], 93 nM in data set [3] and 222 nM in the data set on OCI-Ly3 cells.
As for `O=C(Nc1cnc(-n2nccn2)c(C(F)F)c1)c1cnn(-c2ccc3c4c(cccc24)C(=O)N3)c1C(F)(F)F` [Example 49, N-(5-difluoromethyl-6-(2H-1,2,3-triazol-2-yl)-pyridin-3-yl)-1-(2-oxo-1,2-dihydrobenzo[cd]indol-6-yl)-5-trifluoromethyl-1H-pyrazole-4-carboxamide], the IC50 in data set [1] worked out at 73 nM; in data set [3] it was 28 nM; in the data set on OCI-Ly3 cells (Homo sapiens), 97 nM. In data set [2] (male, mouse, po), this compound came in with an area under the curve AUC(0-inf) of 105000 ng·h/mL. In data set [2] (male, mouse, po), the half-life was 2.1 h. Further, the area under the curve AUC(0-t) in data set [2] (setting [5]) was 105000 ng·h/mL. The Cmax in data set [2] (setting [6]) is 15300 ng/mL. Also, in data set [2] (male, mouse, po, read-out: MRT), the mean residence time MRT is 4.3 h. Besides, the Tmax in data set [2] (setting [7]) was determined as 2 h.
For the compound `O=C(Nc1cnc(-n2nccn2)c(C(F)(F)F)c1)c1cnn(-c2ccc3c4c(cccc24)C(=O)N3)c1C1CC1` [Example 56, N-(6-(2H-1,2,3-triazol-2-yl)-5-(trifluoromethyl)pyridin-3-yl)-5-cyclopropyl-1-(2-oxo-1,2-dihydrobenzo[cd]indol-6-yl)-1H-pyrazole-4-carboxamide], the values for the IC50 (in data set [1]; in data set [3]; in the data set with OCI-Ly3 cells (Homo sapiens)) were 93 nM, 31 nM and 152 nM, respectively.
The corresponding values for `O=C(Nc1cnc(-n2nccn2)c(Cl)c1)c1cnn(-c2ccc3c4c(cccc24)C(=O)N3)c1C1CC1` [Example 60, N-(5-chloro-6-(2H-1,2,3-triazol-2-yl)-pyridin-3-yl)-5-cyclopropyl-1-(2-oxo-1,2-dihydrobenzo[cd]indol-6-yl)-1H-pyrazole-4-carboxamide] are 57 nM, 16 nM and 132 nM.
For `O=C(Nc1ccc(-n2nccn2)c(Cl)c1)c1cnn(-c2ccc3c4c(cccc24)C(=O)N3)c1C1CC1` [Example 63, N-(3-chloro-4-(2H-1,2,3-triazol-2-yl)phenyl)-5-cyclopropyl-1-(2-oxo-1,2-dihydrobenzo[cd]indol-6-yl)-1H-pyrazole-4-carboxamide], the figures for the IC50 (in data set [1]; in data set [3]; in the data set on OCI-Ly3 cells (Homo sapiens)) were 58 nM, 28 nM and 154 nM, respectively.
`O=C(Nc1cnc(-n2nccn2)c(C(F)(F)F)c1)c1cnn(-c2cnc3c4c(cccc24)C(=O)N3)c1C(F)(F)F` [Example 68]: in data set [1], the IC50 was determined as 72 nM. Moreover, in data set [2], the “AUC0-∞” value is on record as 10,388 ng/mL*hr, the exposure AUC(0-t) was 10,168 ng/mL*h, the Cmax is given as 2,670 ng/mL and the MRT was 2.6 h. In addition, in data set [2], the T1/2 turned out to be 1.2 h and the time of peak concentration (Tmax) came out at 0.5 h. The IC50 in data set [3] amounted to 51 nM. The IC50 in the data set on OCI-Ly3 cells is 271 nM.
As to `O=C(Nc1ccc(-n2nccn2)c(Cl)c1)c1cnn(-c2cnc3c4c(cccc24)C(=O)N3)c1C(F)(F)F` [Example 75, N-(3-chloro-4-(2H-1,2,3-triazol-2-yl)phenyl)-1-(2-carbonyl-1,2-dihydropyrrolo[4,3,2-ij]isoquinolin-6-yl)-5-(trifluoromethyl)-1H-pyrazole-4-carboxamide], in data set [1], the IC50 was 83 nM. Besides, in data set [2] (male, mouse, po), the AUC(0-inf) came to 12200 ng·h/mL and the half-life was 3 h. The exposure AUC(0-t) in data set [2] (setting [5]) was found to be 12200 ng·h/mL. In addition, the highest concentration (Cmax) in data set [2] (setting [6]) came out at 1290 ng/mL. For the same compound, in data set [2] (male, mouse, po, read-out: MRT), the mean residence time (MRT) turned out to be 5.5 h. For the same compound, in data set [2] (setting [7]), the time of peak concentration (Tmax) worked out at 2 h. Further, the IC50 in the data set with OCI-Ly3 cells (Homo sapiens) turned out to be 213 nM.
